This is an account of results in ChEMBL document CHEMBL1133518, “5-[1'-(2'-N-Arylsulfonyl-1',2',3',4'-tetrahydroisoquinolyl)]-4, 5-dihydro-2(3H)-furanones: positive allosteric modulators of the GABA(A) receptor with a new mode of action” (J Med Chem, 2000).

The target in assay [1] is T1, GABA-A receptor; anion channel (Rattus norvegicus) (UniProt O09028+P15431+P18506+P18508+P19969+P20236+P23574+P23576+P28471+P28473+P30191+P62813+P63079+P63138+Q91ZM7+Q9ES14). As to the kind of experiment: In vitro displacement of [3H]muscimol from Gamma-aminobutyric acid A receptor of rat brain membranes, slight stimulation activity. Type of assay: cell membranes. As to conditions: Membrane. For orientation: Loss of bound radioactivity is the signal in a displacement assay; it reports binding, not function.

Assay [2] concerns the target T1, GABA-A receptor; anion channel (Rattus norvegicus). In words: In vitro displacement of [35S]TBPS from Gamma-aminobutyric acid A receptor of rat brain membranes. On the set-up: concentration or dose not given beside the values. Type of assay: cell membranes. The note with it: Membrane.
Assay [3] has the same target. In words: (§1) Displacement of [3H]flunitrazepam from GABA-A receptor of rat cerebellum. It is filed as tissue-based. On the set-up: concentration or dose not given beside the values.
For assay [4] the target is unchanged. As to the kind of experiment: (§2) Displacement of [3H]flunitrazepam from GABA-A receptor of rat forebrain. On the set-up: concentration or dose not given beside the values.
Assay [5] has as its target T2, GABA-A receptor; alpha-1/beta-2/gamma-2 (Rattus norvegicus) (UniProt P18508+P62813+P63138). In words: Percent stimulation of Cl- current in Xenopus laevis oocytes expressing rat GABA-A alpha-1-beta-2-gamma-2 subunits at 100 uM. It is filed as functional, cell-based. The note with it: Oocyte.
For assay [6], the target named is T1, GABA-A receptor; anion channel (Rattus norvegicus). As to the kind of experiment: In vitro displacement of [3H]muscimol from Gamma-aminobutyric acid A receptor of rat brain membranes. The note with it: Membrane. Type of assay: cell membranes.
For assay [7] the target is unchanged. In words: In vitro displacement of [3H]muscimol from Gamma-aminobutyric acid A receptor of rat brain membranes (15% stimulation). Type of assay: cell membranes. The note with it: Membrane.
Assay [8] has as its target GABA-A receptor; anion channel. The assay is described as §2.
Assay [9] has as its target GABA-A receptor; anion channel. The description is as §1. Type of assay: tissue-based.
Assay [10] concerns the target T1, GABA-A receptor; anion channel (Rattus norvegicus). As to the kind of experiment: In vitro displacement of [3H]muscimol from Gamma-aminobutyric acid A receptor of rat brain membranes, range 5-10% stimulation. Type of assay: cell membranes. As to conditions: Membrane.
Assay [11] concerns the target T2, GABA-A receptor; alpha-1/beta-2/gamma-2 (Rattus norvegicus). In words: Percent stimulation of pentobarbital elicited Cl- current in Xenopus laevis oocytes expressing rat GABA-A alpha-1-beta-2-gamma-2 subunits at 30 uM. Type of assay: functional, cell-based. The note with it: Oocyte.
Assay [12] shares this target. In words: Percent stimulation of 5-alpha-pregnan-3-alpha-ol-20-one elicited Cl- current in Xenopus laevis oocytes expressing rat GABA-A alpha-1-beta-2-gamma-2 subunits at 30 uM. It is filed as functional, cell-based. As to conditions: Oocyte.

In general, IC50 refers to the point on the concentration scale where inhibition reaches its midpoint.

Structures are written as SMILES. Activity calls are given as the source filed them. The calls are words filed in the database; no cut-off is given here.

In the case of `CN(C)S(=O)(=O)N1CCc2ccccc2[C@@H]1[C@H]1CCC(=O)O1`, the Displacement result in assay [1] is “inactive”. Also, the Displacement in [2] came to 0%; in assay [3], 20%; in assay [4], 20%. Besides, in assay [5], the Stimulation came out at 62%.

Consider `CS(=O)(=O)N1CCc2ccccc2[C@@H]1[C@H]1CCC(=O)O1`, for which the Displacement was found to be 0% in assay [2], 0% in assay [6], 26% in [3] and 20% in [4]. In assay [5], this compound yielded a Stimulation of 32%.

As for `O=C1CC[C@H]([C@H]2c3ccccc3CCN2S(=O)(=O)c2ccc(C(F)(F)F)cc2)O1`, the Displacement amounted to 0% in [2], 0% in [6], 42% in assay [3] and 30% in assay [4]. The same compound returned a Stimulation in [5] of 90%.

For `O=C1CC[C@H]([C@H]2c3ccccc3CCN2S(=O)(=O)c2ccc3ccccc3c2)O1`, the Displacement in assay [2] was found to be 0%; in assay [7], 15%; in [3], 14%; in assay [4], 9%. In [5], the Stimulation stood at 118%.

As to `O=C1CC[C@H]([C@H]2c3ccccc3CCN2S(=O)(=O)c2cccs2)O1`, the Displacement in assay [2] turned out to be 25%; in assay [6], 0%; in assay [3], 66%; in assay [4], 47%. The same compound returned a Stimulation in assay [5] of 353%.

As to `O=C1CC[C@H]([C@H]2c3ccccc3CCN2C(=O)OCc2ccccc2)O1` (racemic), the figures for the IC50 in assay [8] and in assay [9] were 160 nM and 60 nM, respectively. The Displacement in assay [2] and in assay [6] was 0% throughout. This compound yielded a Stimulation in assay [5] of 351%.

Consider `Cc1ccc(S(=O)(=O)N2CCc3ccccc3[C@@H]2[C@H]2CCC(=O)O2)cc1` (racemic), for which the Displacement in assay [10] is 10%; in assay [2], 15%; in [3], 66%; in assay [4] it was 49%. In [5], the Stimulation came out at 579%.

With `O=C1CC[C@H]([C@H]2c3ccccc3CCN2S(=O)(=O)c2ccc(Cl)cc2)O1` (racemic), the Displacement result in assay [1] was “inactive”. In addition, the figures for the Displacement in [2], in assay [3] and in assay [4] were 60%, 43% and 30%, respectively. The Stimulation in [5] amounted to 479%.

`O=C1CC[C@H]([C@H]2c3ccccc3CCN2S(=O)(=O)c2ccccc2)O1` (racemic): the Displacement result in assay [1] is “inactive”. The Displacement was 50% in assay [2], 74% in assay [3] and 66% in assay [4]. For the same compound, the Stimulation in assay [5] came out at 423%.

In the case of `Cc1ccc(S(=O)(=O)N2CCc3ccccc3[C@@H]2[C@H]2CCC(=O)O2)cc1` (stereo in doubt), the Stimulation in assay [11] is 588%; in assay [5] it was 859%; in [12] it was 644%. Further, the Displacement in [3] stood at 67%; in assay [4], 49%.

Consider `Cc1ccc(S(=O)(=O)N2CCc3ccccc3[C@@H]2[C@H]2CCC(=O)O2)cc1` (stereo in doubt; 2c), for which the Displacement in [3] was determined as 61%; in [4], 35%. This compound gave a Stimulation in assay [5] of 184%.
